Data published in ChEMBL document CHEMBL2331127, “3D-QSAR and docking studies of pentacycloundecylamines at the sigma-1 (σ1) receptor” (Bioorg Med Chem Lett, 2013).

Legend:
[1] = molecular target: Sigma non-opioid intracellular receptor 1 (Cavia porcellus, UniProt Q60492); assay: Displacement of [3H](+)-pentazocine from sigma-1 receptor in guinea pig brain
[2] = molecular target: Sigma non-opioid intracellular receptor 1 (Rattus norvegicus, UniProt Q9R0C9); assay: Displacement of [3H](+)-pentazocine from sigma-1 receptor in rat liver homogenate; assay type: tissue-based
Sequence of Sigma non-opioid intracellular receptor 1 (Rattus norvegicus, UniProt Q9R0C9) (Q9R0C9 whole entry): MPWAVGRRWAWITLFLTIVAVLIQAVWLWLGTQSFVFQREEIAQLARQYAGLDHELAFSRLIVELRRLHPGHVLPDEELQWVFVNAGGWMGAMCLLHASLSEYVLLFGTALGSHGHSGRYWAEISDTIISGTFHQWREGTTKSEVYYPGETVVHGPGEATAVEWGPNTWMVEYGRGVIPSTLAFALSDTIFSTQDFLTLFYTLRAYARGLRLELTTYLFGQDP

Sequence of Sigma non-opioid intracellular receptor 1 (Cavia porcellus, UniProt Q60492) (Q60492 whole entry): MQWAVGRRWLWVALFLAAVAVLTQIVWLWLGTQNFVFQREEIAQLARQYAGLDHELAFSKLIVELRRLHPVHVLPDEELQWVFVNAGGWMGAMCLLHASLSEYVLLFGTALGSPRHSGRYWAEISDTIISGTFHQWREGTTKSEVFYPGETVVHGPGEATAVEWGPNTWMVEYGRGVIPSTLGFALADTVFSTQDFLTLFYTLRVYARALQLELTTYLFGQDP

| SMILES | Ki [1] [nM] | IC50 [2] [nM] |
| --- | --- | --- |
| OC12C3C4CC5C6C4C1C6C(C53)N2Cc1ccccc1 (stereo not drawn) | 102 | – |
| OC12C3C4CC5C6C4C1C6C(C53)N2CCCc1ccccc1 (stereo not drawn) | 20.9 | – |
| OC12C3C4CC5C6C4C1C6C(C53)N2CCCCc1ccccc1 (stereo not drawn) | 8.91 | – |
| COc1ccc(CN2C3C4C5CC6C7C5C3C7C2(O)C64)cc1 (stereo not drawn) | 102 | – |
| OC12C3C4CC5C6C4C1C6C(C53)N2CCc1ccccc1 (stereo not drawn) | 20 | – |
| OC12C3C4CC5C6C4C1C6C(C53)N2CCc1ccc(Cl)c(Cl)c1 (stereo not drawn) | 10 | – |
| OC12C3C4CC5C6C4C1C6C(C53)N2CCc1cccc(Cl)c1 (stereo not drawn) | 20.9 | – |
| OC12C3C4CC5C6C4C1C6C(C53)N2CCc1ccc(Br)cc1 (stereo not drawn) | 10 | – |
| OC12C3C4CC5C6C4C1C6C(C53)N2Cc1cccc(Cl)c1 (stereo not drawn) | 186 | – |
| Cc1cccc(CN2C3C4C5CC6C7C5C3C7C2(O)C64)c1 (stereo not drawn) | 97.7 | – |
| OC12C3C4CC5C6C4C1C6C(C53)N2Cc1cccc(C(F)(F)F)c1 (stereo not drawn) | 269 | – |
| O=[N+]([O-])c1cccc(CN2C3C4C5CC6C7C5C3C7C2(O)C64)c1 (stereo not drawn) | 1100 | – |
| OC12C3C4CC5C6C4C1C6C(C53)N2Cc1ccccc1F (stereo not drawn) | 182 | – |
| OC12C3C4CC5C6C4C1C6C(C53)N2Cc1ccc(F)c(F)c1 (stereo not drawn) | 200 | – |
| OC12C3C4CC5C6C4C1C6C(C53)N2Cc1ccc(F)cc1 (stereo not drawn) | 107 | – |
| OC12C3C4CC5C6C4C1C6C(C53)N2Cc1ccc(I)cc1 (stereo not drawn) | 81.3 | – |
| OC12C3C4CC5C6C4C1C6C(C53)N2Cc1cccc(I)c1 (stereo not drawn) | 170 | – |
| OC12C3C4CC5C6C4C1C6C(C53)N2Cc1ccc(Br)cc1 (stereo not drawn) | 85.1 | – |
| c1ccc(CCNC23OC4C5C6CC(C7C6C4C72)C53)cc1 (stereo not drawn) | – | 1540 |
| OC12C3C4CC5C6C4C1C6C(C53)N2Cc1cccc(Br)c1 (stereo not drawn) | 209 | – |
| c1ccc(CNC23OC4C5C6CC(C7C6C4C72)C53)cc1 (stereo not drawn) | – | 1780 |
| OC12C3C4CC5C6C4C1C6C(C53)N2CCc1cccc(F)c1 (stereo not drawn) | 10 | – |
| OC12C3C4CC5C6C4C1C6C(C53)N2Cc1cccc(F)c1 (stereo not drawn) | 151 | – |
